Measured values taken from ChEMBL document CHEMBL4011590, “Structure-activity relationship studies on 3,5-dinitrophenyl tetrazoles as antitubercular agents” (Eur J Med Chem, 2017).
≈ marks a conversion by molar mass, not a printed value.

Key:
[1] = Selectivity index, ratio of IC50 for mouse 3T3 cells to MIC for Mycobacterium tuberculosis H37Rv CNCTC My 331/88; assay type: toxicity; conditions: read-out: Selectivity Index
[2] = system: Escherichia coli; assay: Antibacterial activity against Escherichia coli ATCC 8739 after 24 hrs by broth microdilution method; assay type: functional; conditions: ATCC 8739, 24 h
[3] = system: Aspergillus fumigatus; assay: Antifungal activity against Aspergillus fumigatus 231 after 24 hrs by broth microdilution method; assay type: functional; conditions: Aspergillus fumigatus, 231, 24 h
[4] = system: Enterococcus sp.; assay: Antibacterial activity against Enterococcus sp. HK14365/08 after 48 hrs by broth microdilution method; assay type: functional; conditions: HK14365/08, 48 h
[5] = system: Nakaseomyces glabratus; assay: Antifungal activity against Candida glabrata 20/I after 24 hrs by broth microdilution method; assay type: functional
[6] = system: CHO-K1; assay: Cytotoxicity against CHOK1 cells after 24 hrs by MTT assay; assay type: cell-based; conditions: Cricetulus griseus, CHO-K1, 24 h
[7] = system: Mycobacterium kansasii; assay: Antimycobacterial activity against Mycobacterium kansasii isolate 6509/96 after 14 days by micromethod; assay type: functional; conditions: isolate 6509/96, 336 h
[8] = system: Pseudomonas aeruginosa; assay: Antibacterial activity against Pseudomonas aeruginosa ATCC 9027 after 48 hrs by broth microdilution method; assay type: functional; conditions: ATCC 9027, 48 h
[9] = system: Candida tropicalis; assay: Antifungal activity against Candida tropicalis 156 after 48 hrs by broth microdilution method; assay type: functional; conditions: Candida tropicalis, 156, 48 h
[10] = Selectivity index, ratio of IC50 for CHOK1 cells to MIC for Mycobacterium tuberculosis H37Rv CNCTC My 331/88; assay type: toxicity; conditions: hamster, CHO-K1 cells; read-out: Selectivity Index
[11] = system: Escherichia coli; assay: Antibacterial activity against Escherichia coli ATCC 8739 after 48 hrs by broth microdilution method; assay type: functional; conditions: ATCC 8739, 48 h
[12] = system: Klebsiella pneumoniae; assay: Antibacterial activity against extended spectrum beta-lactamase producing Klebsiella pneumoniae HK14368/08 after 48 hrs by broth microdilution method; assay type: functional; conditions: HK14368/08, 48 h
[13] = system: Pichia kudriavzevii; assay: Antifungal activity against Candida krusei E28 after 24 hrs by broth microdilution method; assay type: functional; conditions: E28, 24 h
[14] = system: Mycobacterium tuberculosis; assay: Antimycobacterial activity against Mycobacterium tuberculosis H37Rv CNCTC My 331/88 after 14 days by micromethod; assay type: functional; conditions: H37Rv CNCTC My 331/88, 336 h
[15] = system: Mycobacterium kansasii; assay: Antimycobacterial activity against Mycobacterium kansasii CNCTC My 235/80 after 7 days by micromethod; assay type: functional; conditions: CNCTC My 235/80, 168 h
[16] = system: Mycobacterium avium; assay: Antimycobacterial activity against Mycobacterium avium CNCTC My 330/80 after 21 days by micromethod; assay type: functional; conditions: CNCTC My 330/80, 504 h
[17] = system: Mycobacterium kansasii; assay: Antimycobacterial activity against Mycobacterium kansasii isolate 6509/96 after 7 days by micromethod; assay type: functional; conditions: isolate 6509/96, 168 h
[18] = system: Mycobacterium kansasii; assay: Antimycobacterial activity against Mycobacterium kansasii CNCTC My 235/80 after 14 days by micromethod; assay type: functional; conditions: CNCTC My 235/80, 336 h
[19] = system: Klebsiella pneumoniae; assay: Antibacterial activity against Klebsiella pneumoniae HK11750/08 after 48 hrs by broth microdilution method; assay type: functional; conditions: HK11750/08, 48 h
[20] = system: Nakaseomyces glabratus; assay: Antifungal activity against Candida glabrata 20/I after 48 hrs by broth microdilution method; assay type: functional
[21] = system: Staphylococcus aureus; assay: Antibacterial activity against Staphylococcus aureus ATCC 6538 after 24 hrs by broth microdilution method; assay type: functional; conditions: ATCC 6538, 24 h
[22] = system: Candida albicans; assay: Antifungal activity against Candida albicans ATCC 44859 after 24 hrs by broth microdilution method; assay type: functional; conditions: ATCC 44859, 24 h
[23] = system: Klebsiella pneumoniae; assay: Antibacterial activity against extended spectrum beta-lactamase producing Klebsiella pneumoniae HK14368/08 after 24 hrs by broth microdilution method; assay type: functional; conditions: HK14368/08, 24 h
[24] = system: Trichosporon asahii; assay: Antifungal activity against Trichosporon asahii 1188 after 48 hrs by broth microdilution method; assay type: functional; conditions: Trichosporon asahii, 1188, 48 h
[25] = system: Trichophyton mentagrophytes; assay: Antifungal activity against Trichophyton mentagrophytes 445 after 72 hrs by broth microdilution method; assay type: functional; conditions: Trichophyton mentagrophytes, 445, 72 h
[26] = system: Mycobacterium kansasii; assay: Antimycobacterial activity against Mycobacterium kansasii CNCTC My 235/80 after 21 days by micromethod; assay type: functional; conditions: CNCTC My 235/80, 504 h
[27] = system: Staphylococcus aureus; assay: Antibacterial activity against Staphylococcus aureus ATCC 6538 after 48 hrs by broth microdilution method; assay type: functional; conditions: ATCC 6538, 48 h
[28] = system: HaCaT; assay: Cytotoxicity against human HaCaT cells after 72 hrs by neutral red uptake assay; assay type: cell-based
[29] = system: Mycobacterium tuberculosis; assay: Antimycobacterial activity against Mycobacterium tuberculosis H37Rv CNCTC My 331/88 after 21 days by micromethod; assay type: functional; conditions: H37Rv CNCTC My 331/88, 504 h
[30] = system: Trichosporon asahii; assay: Antifungal activity against Trichosporon asahii 1188 after 24 hrs by broth microdilution method; assay type: functional; conditions: Trichosporon asahii, 1188, 24 h
[31] = system: Pichia kudriavzevii; assay: Antifungal activity against Candida krusei E28 after 48 hrs by broth microdilution method; assay type: functional; conditions: E28, 48 h
[32] = system: Mycobacterium kansasii; assay: Antimycobacterial activity against Mycobacterium kansasii isolate 6509/96 after 21 days by micromethod; assay type: functional; conditions: isolate 6509/96, 504 h
[33] = system: Trichophyton mentagrophytes; assay: Antifungal activity against Trichophyton mentagrophytes 445 after 120 hrs by broth microdilution method; assay type: functional; conditions: Trichophyton mentagrophytes, 445, 120 h
[34] = system: Klebsiella pneumoniae; assay: Antibacterial activity against Klebsiella pneumoniae HK11750/08 after 24 hrs by broth microdilution method; assay type: functional; conditions: HK11750/08, 24 h
[35] = system: Lichtheimia corymbifera; assay: Antifungal activity against Absidia corymbifera 272 after 24 hrs by broth microdilution method; assay type: functional; conditions: Lichtheimia corymbifera, 272, 24 h
[36] = system: Pseudomonas aeruginosa; assay: Antibacterial activity against Pseudomonas aeruginosa ATCC 9027 after 24 hrs by broth microdilution method; assay type: functional; conditions: ATCC 9027, 24 h
[37] = Selectivity index, ratio of IC50 for human HaCaT cells to MIC for Mycobacterium tuberculosis H37Rv CNCTC My 331/88; assay type: toxicity; conditions: read-out: Selectivity Index
[38] = system: Staphylococcus aureus; assay: Antibacterial activity against methicillin-resistant Staphylococcus aureus HK5996/08 after 48 hrs by broth microdilution method; assay type: functional; conditions: HK5996/08, 48 h
[39] = system: Lichtheimia corymbifera; assay: Antifungal activity against Absidia corymbifera 272 after 48 hrs by broth microdilution method; assay type: functional; conditions: Lichtheimia corymbifera, 272, 48 h
[40] = system: Mycobacterium avium; assay: Antimycobacterial activity against Mycobacterium avium CNCTC My 330/80 after 14 days by micromethod; assay type: functional; conditions: CNCTC My 330/80, 336 h
[41] = system: Enterococcus sp.; assay: Antibacterial activity against Enterococcus sp. HK14365/08 after 24 hrs by broth microdilution method; assay type: functional; conditions: HK14365/08, 24 h
[42] = system: Staphylococcus aureus; assay: Antibacterial activity against methicillin-resistant Staphylococcus aureus HK5996/08 after 24 hrs by broth microdilution method; assay type: functional; conditions: HK5996/08, 24 h
[43] = system: Aspergillus fumigatus; assay: Antifungal activity against Aspergillus fumigatus 231 after 48 hrs by broth microdilution method; assay type: functional; conditions: Aspergillus fumigatus, 231, 48 h
[44] = system: Candida albicans; assay: Antifungal activity against Candida albicans ATCC 44859 after 48 hrs by broth microdilution method; assay type: functional; conditions: ATCC 44859, 48 h
[45] = system: Candida tropicalis; assay: Antifungal activity against Candida tropicalis 156 after 24 hrs by broth microdilution method; assay type: functional; conditions: Candida tropicalis, 156, 24 h
[46] = system: Staphylococcus epidermidis; assay: Antibacterial activity against Staphylococcus epidermidis HK6966/08 after 24 hrs by broth microdilution method; assay type: functional; conditions: HK6966/08, 24 h
[47] = system: Staphylococcus epidermidis; assay: Antibacterial activity against Staphylococcus epidermidis HK6966/08 after 48 hrs by broth microdilution method; assay type: functional; conditions: HK6966/08, 48 h

## COc1ccc(Cn2nnc(-c3cc([N+](=O)[O-])cc([N+](=O)[O-])c3)n2)cc1
[1]
  selectivity ratio: > 1000
[2]
  MIC: > 500 µM
[3]
  MIC: > 500 µM
[4]
  MIC: > 500 µM
[5]
  MIC: > 500 µM
[6]
  IC50: 96 µM
[7]
  MIC99: 0.06 µM (≈ 0.0214 µg/mL)
[8]
  MIC: > 500 µM
[9]
  MIC: > 500 µM
[10]
  selectivity ratio: > 1000
[11]
  MIC: > 500 µM
[12]
  MIC: > 500 µM
[13]
  MIC: > 500 µM
[14]
  MIC99: 0.03 µM (≈ 0.0107 µg/mL)
[15]
  MIC99: 0.125 µM (≈ 0.0445 µg/mL)
[16]
  MIC99: 8 µM (≈ 2.85 µg/mL)
[17]
  MIC99: 0.06 µM (≈ 0.0214 µg/mL)
[18]
  MIC99: 0.125 µM (≈ 0.0445 µg/mL)
[19]
  MIC: > 500 µM
[20]
  MIC: > 500 µM
[21]
  MIC: > 250 µM
[22]
  MIC: > 500 µM
[23]
  MIC: > 500 µM
[24]
  MIC: > 500 µM
[25]
  MIC: > 500 µM
[26]
  MIC99: 0.25 µM (≈ 0.0891 µg/mL)
[27]
  MIC: > 250 µM
[28]
  IC50: > 100 µM
[29]
  MIC99: 0.03 µM (≈ 0.0107 µg/mL)
[30]
  MIC: > 500 µM
[31]
  MIC: > 500 µM
[32]
  MIC99: 0.125 µM (≈ 0.0445 µg/mL)
[33]
  MIC: > 500 µM
[34]
  MIC: > 500 µM
[35]
  MIC: > 500 µM
[36]
  MIC: > 500 µM
[37]
  selectivity ratio: > 1000
[38]
  MIC: 250 µM (≈ 89.1 µg/mL)
[39]
  MIC: > 500 µM
[40]
  MIC99: 4 µM (≈ 1.43 µg/mL)
[41]
  MIC: > 500 µM
[42]
  MIC: 250 µM (≈ 89.1 µg/mL)
[43]
  MIC: > 500 µM
[44]
  MIC: > 500 µM
[45]
  MIC: > 500 µM

## Cc1ccc(Cn2nnnc2-c2cc([N+](=O)[O-])cc([N+](=O)[O-])c2)cc1
[2]
  MIC: 500 µM (≈ 170 µg/mL)
[3]
  MIC: > 500 µM
[4]
  MIC: 250 µM (≈ 85.1 µg/mL)
[5]
  MIC: > 500 µM
[6]
  IC50: 28 µM
[7]
  MIC99: 4 µM (≈ 1.36 µg/mL)
[8]
  MIC: > 500 µM
[9]
  MIC: > 500 µM
[46]
  MIC: 250 µM (≈ 85.1 µg/mL)
[11]
  MIC: 500 µM (≈ 170 µg/mL)
[12]
  MIC: 500 µM (≈ 170 µg/mL)
[13]
  MIC: > 500 µM
[14]
  MIC99: 1 µM (≈ 0.34 µg/mL)
[15]
  MIC99: 1 µM (≈ 0.34 µg/mL)
[16]
  MIC99: 16 µM (≈ 5.44 µg/mL)
[17]
  MIC99: 2 µM (≈ 0.681 µg/mL)
[18]
  MIC99: 2 µM (≈ 0.681 µg/mL)
[19]
  MIC: 500 µM (≈ 170 µg/mL)
[20]
  MIC: > 500 µM
[47]
  MIC: 250 µM (≈ 85.1 µg/mL)
[21]
  MIC: 125 µM (≈ 42.5 µg/mL)
[22]
  MIC: > 500 µM
[23]
  MIC: 500 µM (≈ 170 µg/mL)
[24]
  MIC: > 500 µM
[25]
  MIC: > 500 µM
[26]
  MIC99: 4 µM (≈ 1.36 µg/mL)
[27]
  MIC: 125 µM (≈ 42.5 µg/mL)
[29]
  MIC99: 2 µM (≈ 0.681 µg/mL)
[30]
  MIC: > 500 µM
[31]
  MIC: > 500 µM
[32]
  MIC99: 4 µM (≈ 1.36 µg/mL)
[33]
  MIC: > 500 µM
[34]
  MIC: 500 µM (≈ 170 µg/mL)
[35]
  MIC: > 500 µM
[36]
  MIC: > 500 µM
[38]
  MIC: 125 µM (≈ 42.5 µg/mL)
[39]
  MIC: > 500 µM
[40]
  MIC99: 8 µM (≈ 2.72 µg/mL)
[41]
  MIC: 250 µM (≈ 85.1 µg/mL)
[42]
  MIC: 125 µM (≈ 42.5 µg/mL)
[43]
  MIC: > 500 µM
[44]
  MIC: > 500 µM
[45]
  MIC: > 500 µM
